This assay has as its system whole body 60Co-gamma irradiated mice. As to the kind of experiment: Liver and kidney function markers SGOT, SGPT, urea and creatinine after irradiation. In kind it is in vivo. Here is the method:
Black C57BL/6 male mice weighing 28–30 g were maintained at the Institutional Animal Experimental Facility. Animals were fed according to standard chow diet having free access to food and water ad libitum. The environmental condition was maintained at room temperature (22 ± 2 °C), relative humidity (45–60%) and 12 h dark/light cycle controlled facility. In this study, mice were randomly assigned to four different groups (n = 21) i.e untreated control (UC), GAE-treated (GAE), Radiation + GAE (R + GAE), Radiation group (R). Mice fasted overnight with free access to water before being dosed. Isolated GAE from leaves was dissolved with distilled water and ethanol in (7:3 v/v) and administered orally at a dose of 200 mg/kg body weight to GAE-treated and R + GAE treated groups only. The experiment was carried out in accordance to regulation and guideline of the, Committee for the purpose of control and supervision of Experiments on animals (CPCSEA), and study was approved by Institutional Animal Experimental Committee (IAEC), Institute of Nuclear Medicine & Allied Science, Delhi, India.
Group I untreated control (UC), Group II GAE-treated (GAE), Group III Radiation + GAE (R + GAE) and Group IV Radiation (R) exposed. The GAE was administered orally 15 min post irradiation. The whole-body radiation (5 Gy) was carried out using Bhabahtron II, Telecobalt machine, Panacea medical technology, Bangalore. The mice exposed at a dose rate of 0.961 Gy/min at field 35 × 35 cm^2 and the distance maintained from the source was 80 cm.
SGOT and SGPT are a biomarker of liver function test used to assess liver function and its damage; whereas, urea and creatinine were used to investigate kidney function and its damage. These biomarkers were analyzed in-vitro by the use of commercially available kits of agape, Kerala, India. The assay were performed according to standard procedure mention in the kit protocol. In-vitro SGOT quantitative determination were based on the reaction of L-aspartate with alpha-ketoglutarate. According to the manufacturer protocol reagent were mix and incubated for 1 minute at 37 °C. The changes in absorbance were recorded per minute during 3 minutes. In-vitro kinetic determination of SGPT were based on the reaction of L-alanine with alpha-ketoglutarate. The reagent were mixed and incubated for 1 minute at 37 °C. the changes in absorbance was recorded per minute during 3 minutes at 340 nm. Urea is in-vitro quantitative determine by the method of Talke et al., 1965. Creatinine were in-vitro determined by kits and it can be measured by quionone pigment photometrically. Reagent were mixed and incubated for 5 minute at 37 °C. the sample absorbance and the standard against the reagent blank were measured at 546 nm.

[1] abbreviates: R + GAE group (5 Gy, GAE 200 mg/kg oral 15 min post irradiation), 8 h.
[2] abbreviates: R + GAE group (5 Gy, GAE 200 mg/kg oral 15 min post irradiation), 24 h.

Regarding `CCOC(=O)c1cc(O)c(O)c(O)c1` [GAE, Ethyl 3,4,5-trihydroxybenzoate], the “change of SGOT, SGPT, urea and creatinine in serum compared to irradiated animals not receiving GAE” value (GAE 200 mg/kg b.wt oral 15 min post 5 Gy irradiation, P < 0.05) is recorded as “significant reduction”. In addition, under setting [1], the SGOT level is listed as 24.10 ± 2.4 U/L, the SGPT level was 36.01 ± 6.1 U/L and the urea level was found to be 18.16 ± 0.003 mg/dL. Moreover, under setting [2], the SGOT level is on record as 63.11 ± 6.16 U/L and the SGPT level stood at 62.15 ± 8.63 U/L. Besides, the creatinine level (R + GAE group (5 Gy, GAE 200 mg/kg oral 15 min post irradiation), upto 8 h) was determined as 1.05 ± 0.04 mg/dL. For the setting “post irradiation (5 Gy), liver and kidney function biomarkers, efficacy reduced at 24 h”, the “duration of radiomodifying action” value is on record as not above 8 h.

The values above are taken from article PMC6906394, “Radiomodifying action, Pharmacokinetic and Biodistribution of Ethyl 3, 4, 5-trihydroxybenzoate-Implication in development of radiomitigator” (Scientific Reports, 2019).
